# Measurements: patent publication US8067424B2, “Selective inhibitors for cyclin-dependent kinases” (Emory University, priority 2007, dated 2011)
# Where two headings read alike, the source gives them in different places.
# Columns and labels:
# PC-3 = assay: cells; details: Homo sapiens
# MALME-3M = assay: cells; details: Homo sapiens
# MDA-MB-231/ATCC [1] = details: for Mean Optical Densities / Percent Growth: MDA-MB-231/ATCC
# MOLT-4 = assay: cells; details: Homo sapiens
# NCI-H23 = assay: cells; details: Homo sapiens
# A549/ATCC = assay: cells; details: Homo sapiens
# SK-MEL-28 = assay: cells; details: Homo sapiens
# HOP-92 = assay: cells; details: Homo sapiens
# SN12C = assay: cells; details: Homo sapiens
# UACC-257 = assay: cells; details: Homo sapiens
# T-47D = details: for Mean Optical Densities / Percent Growth: T-47D
# LOX IMVI = assay: cells; details: Homo sapiens
# MDA-MB-231/ATCC [2] = assay: cells; details: Homo sapiens
# UACC-62 [3] = assay: cells; details: Homo sapiens
# UACC-62 [4] = system: UACC-62
# HOP-62 = assay: cells; details: Homo sapiens
# [5] = 786-0, log10 concentration −4.0
# [6] = 786-0, log10 concentration −5.0
# [7] = 786-0, log10 concentration −6.0
# [8] = 786-0, log10 concentration −7.0
# [9] = 786-0, log10 concentration −8.0
# [10] = SF-539, log10 concentration −4.0
# [11] = SF-539, log10 concentration −5.0
# [12] = SF-539, log10 concentration −6.0
# [13] = SF-539, log10 concentration −7.0
# [14] = SF-539, log10 concentration −8.0
# [15] = SK-OV-3, log10 concentration −4.0
# [16] = SK-OV-3, log10 concentration −5.0
# [17] = SK-OV-3, log10 concentration −6.0
# [18] = SK-OV-3, log10 concentration −7.0
# [19] = SK-OV-3, log10 concentration −8.0
# [20] = NCI-H522, log10 concentration −4.0
# [21] = NCI-H522, log10 concentration −5.0
# [22] = NCI-H522, log10 concentration −6.0
# [23] = NCI-H522, log10 concentration −7.0
# [24] = NCI-H522, log10 concentration −8.0
# [25] = UACC-62, log10 concentration −4.0
# [26] = UACC-62, log10 concentration −5.0
# [27] = UACC-62, log10 concentration −6.0
# [28] = UACC-62, log10 concentration −7.0
# [29] = UACC-62, log10 concentration −8.0
# [30] = DU-145, log10 concentration −4.0
# [31] = DU-145, log10 concentration −5.0
# [32] = DU-145, log10 concentration −6.0
# [33] = DU-145, log10 concentration −7.0
# [34] = DU-145, log10 concentration −8.0
compound,measurement,setting,value
"CC(C)c1cnn2c(NCc3ccccc3)cc(N[C@@H](CO)[C@H](O)CO)nc12 [ICEC0318, (3S)-3-(7-(Benzylamino)-3-isopropylpyrazolo[1,5-a]pyrimidin-5-ylamino)butane-1,2,4-triol]",TGI,786-0; 786-0 (Renal Cancer),8.99E−7
same,Mean Optical Densities,786-0; [5],0.491
same,Percent Growth,786-0; [5],−21%
same,Mean Optical Densities,786-0; [6],0.598
same,Percent Growth,786-0; [6],−4%
same,Mean Optical Densities,786-0; [7],0.592
same,Percent Growth,786-0; [7],−5%
same,Mean Optical Densities,786-0; [8],1.769
same,Percent Growth,786-0; [8],98%
same,Mean Optical Densities,786-0; [9],1.824
same,Percent Growth,786-0; [9],103%
same,GI50,"786-0; Homo sapiens, 786-0",293 nM
same,CC50,"786-0; Homo sapiens, 786-0, read-out: LC50",> 100000 nM
same,GI50,PC-3; PC-3,314 nM
same,CC50,"PC-3; PC-3, read-out: LC50",> 100000 nM
same,GI50,MALME-3M,404 nM
same,CC50,MALME-3M; read-out: LC50,> 100000 nM
same,TGI,MDA-MB-231/ATCC [1]; MDA-MB-231/ATCC (Breast Cancer),>1.00E−4
same,Mean Optical Densities,MDA-MB-231/ATCC [1]; log10 concentration −4.0,0.482
same,Percent Growth,MDA-MB-231/ATCC [1]; log10 concentration −4.0,11%
same,Mean Optical Densities,MDA-MB-231/ATCC [1]; log10 concentration −5.0,0.529
same,Percent Growth,MDA-MB-231/ATCC [1]; log10 concentration −5.0,19%
same,Mean Optical Densities,MDA-MB-231/ATCC [1]; log10 concentration −6.0,0.548
same,Percent Growth,MDA-MB-231/ATCC [1]; log10 concentration −6.0,22%
same,Mean Optical Densities,MDA-MB-231/ATCC [1]; log10 concentration −7.0,1.039
same,Percent Growth,MDA-MB-231/ATCC [1]; log10 concentration −7.0,101%
same,Mean Optical Densities,MDA-MB-231/ATCC [1]; log10 concentration −8.0,1.087
same,Percent Growth,MDA-MB-231/ATCC [1]; log10 concentration −8.0,109%
same,GI50,MOLT-4; MOLT-4,259 nM
same,CC50,"MOLT-4; MOLT-4, read-out: LC50",> 100000 nM
same,GI50,NCI-H23; NCI-H23,260 nM
same,CC50,"NCI-H23; NCI-H23, read-out: LC50",> 100000 nM
same,GI50,A549/ATCC; A549,338 nM
same,CC50,"A549/ATCC; A549, read-out: LC50",> 100000 nM
same,GI50,SK-MEL-28; SK-MEL-28,245 nM
same,CC50,"SK-MEL-28; SK-MEL-28, read-out: LC50",37100 nM
same,GI50,HOP-92; HOP-92,369 nM
same,CC50,"HOP-92; HOP-92, read-out: LC50",> 100000 nM
same,GI50,SN12C,327 nM
same,CC50,SN12C; read-out: LC50,> 100000 nM
same,GI50,UACC-257; UACC-257,344 nM
same,CC50,"UACC-257; UACC-257, read-out: LC50",> 100000 nM
same,TGI,T-47D; T-47D (Breast Cancer),2.55E−6
same,Mean Optical Densities,T-47D; log10 concentration −4.0,0.479
same,Percent Growth,T-47D; log10 concentration −4.0,−12%
same,Mean Optical Densities,T-47D; log10 concentration −5.0,0.516
same,Percent Growth,T-47D; log10 concentration −5.0,−5%
same,Mean Optical Densities,T-47D; log10 concentration −6.0,0.565
same,Percent Growth,T-47D; log10 concentration −6.0,3%
same,Mean Optical Densities,T-47D; log10 concentration −7.0,1.199
same,Percent Growth,T-47D; log10 concentration −7.0,94%
same,Mean Optical Densities,T-47D; log10 concentration −8.0,1.266
same,Percent Growth,T-47D; log10 concentration −8.0,103%
same,GI50,LOX IMVI,171 nM
same,CC50,LOX IMVI; read-out: LC50,> 100000 nM
same,TGI,SF-539; SF-539 (CNS Cancer),5.81E−7
same,Mean Optical Densities,SF-539; [10],0.138
same,Percent Growth,SF-539; [10],−81%
same,Mean Optical Densities,SF-539; [11],0.327
same,Percent Growth,SF-539; [11],−55%
same,Mean Optical Densities,SF-539; [12],0.540
same,Percent Growth,SF-539; [12],−25%
same,Mean Optical Densities,SF-539; [13],1.950
same,Percent Growth,SF-539; [13],82%
same,Mean Optical Densities,SF-539; [14],2.183
same,Percent Growth,SF-539; [14],98%
same,GI50,MDA-MB-231/ATCC [2]; MDA-MB-231,438 nM
same,CC50,"MDA-MB-231/ATCC [2]; MDA-MB-231, read-out: LC50",> 100000 nM
same,TGI,SK-OV-3; SK-OV-3 (Ovarian Cancer),>1.00E−4
same,Mean Optical Densities,SK-OV-3; [15],0.799
same,Percent Growth,SK-OV-3; [15],9%
same,Mean Optical Densities,SK-OV-3; [16],0.860
same,Percent Growth,SK-OV-3; [16],17%
same,Mean Optical Densities,SK-OV-3; [17],0.903
same,Percent Growth,SK-OV-3; [17],23%
same,Mean Optical Densities,SK-OV-3; [18],1.701
same,Percent Growth,SK-OV-3; [18],132%
same,Mean Optical Densities,SK-OV-3; [19],1.504
same,Percent Growth,SK-OV-3; [19],105%
same,TGI,NCI-H522; NCI-H522 (Non-Small Cell Lung Cancer),2.13E−6
same,Mean Optical Densities,NCI-H522; [20],0.741
same,Percent Growth,NCI-H522; [20],−17%
same,Mean Optical Densities,NCI-H522; [21],0.640
same,Percent Growth,NCI-H522; [21],−29%
same,Mean Optical Densities,NCI-H522; [22],1.075
same,Percent Growth,NCI-H522; [22],14%
same,Mean Optical Densities,NCI-H522; [23],2.156
same,Percent Growth,NCI-H522; [23],99%
same,Mean Optical Densities,NCI-H522; [24],2.185
same,Percent Growth,NCI-H522; [24],101%
same,GI50,UACC-62 [3]; UACC-62,155 nM
same,CC50,"UACC-62 [3]; UACC-62, read-out: LC50",644 nM
same,TGI,UACC-62 [4]; UACC-62 (Melanoma),3.16E−7
same,Mean Optical Densities,UACC-62 [4]; [25],0.078
same,Percent Growth,UACC-62 [4]; [25],−90%
same,Mean Optical Densities,UACC-62 [4]; [26],0.165
same,Percent Growth,UACC-62 [4]; [26],−78%
same,Mean Optical Densities,UACC-62 [4]; [27],0.142
same,Percent Growth,UACC-62 [4]; [27],−81%
same,Mean Optical Densities,UACC-62 [4]; [28],1.821
same,Percent Growth,UACC-62 [4]; [28],81%
same,Mean Optical Densities,UACC-62 [4]; [29],2.110
same,Percent Growth,UACC-62 [4]; [29],102%
same,GI50,HOP-62; HOP-62,243 nM
same,CC50,"HOP-62; HOP-62, read-out: LC50",> 100000 nM
same,TGI,DU-145; DU-145 (Prostate Cancer),>1.00E−4
same,Mean Optical Densities,DU-145; [30],0.204
same,Percent Growth,DU-145; [30],3%
same,Mean Optical Densities,DU-145; [31],0.250
same,Percent Growth,DU-145; [31],12%
same,Mean Optical Densities,DU-145; [32],0.277
same,Percent Growth,DU-145; [32],17%
same,Mean Optical Densities,DU-145; [33],0.688
same,Percent Growth,DU-145; [33],95%
same,Mean Optical Densities,DU-145; [34],0.732
same,Percent Growth,DU-145; [34],103%
